Results taken from publication PMC6436837 (Antiviral research, 2018).
Read-outs that look alike come from different tables or passages of the source.

What was measured:
EBOV-GFP [1] = assay: microbe, parasite or virus in culture; format: cell-based, Ebola virus; conditions: for IC50: read-out: IC50 against EBOV-GFP
EBOV-GFP [2] = format: cell-based, Ebola virus
EBOV polymerase complex = format: cell-based, Ebola virus
ISRE promoter [3] = format: cell-based, mouse
ISRE promoter [4] = format: cell-based, human
VSV-GFP = assay: microbe, parasite or virus in culture; format: cell-based, vesicular stomatitis virus; conditions: read-out: IC50 against VSV-GFP
ZIKV = assay: microbe, parasite or virus in culture; format: cell-based, Zika virus; conditions: read-out: IC50 against ZIKV
ISG54, ISG56, and MX1 = format: cell-based, human

| Structure (SMILES) | Activity against EBOV-GFP (EBOV-GFP [1]) | Effect on cell viability (A549 cells) | Reduction of viral titers in cell culture supernatants (EBOV-GFP [2]) [fold] | Activity in EBOV MG assay (EBOV polymerase complex) | IC50 (EBOV-GFP [1]) [nM] | Inhibition of EBOV replication (EBOV-GFP [2]) | ISRE reporter induction in MEFs (ISRE promoter [3]) | Activation of ISRE promoter (ISRE promoter [4]) | IC50 (VSV-GFP) [nM] | Effect on cell viability (Vero cells) | IC50 (ZIKV) [nM] | ISG54 and ISG56 mRNA response (ISG54, ISG56, and MX1) | IC50 (EBOV polymerase complex; read-out: IC50 in EBOV MG assay) [nM] | IC50 (EBOV-GFP [1]; Zaire ebolavirus, HeLa, 24 h) [nM] | IC50 (VSV-GFP; Vesicular stomatitis virus, Vero, 21 h) [nM] | IC50 (ZIKV; Zika virus, Vero, 48 h) [nM] |
| --- | --- | --- | --- | --- | --- | --- | --- | --- | --- | --- | --- | --- | --- | --- | --- | --- |
| O=C(N[C@@H]1CCCc2c1[nH]c1ccc(Cl)cc21)c1ccccn1 [GSK983, reference compound] | highly active, even at the lowest concentration tested | no effect on cell viability | > 200 | – | – | – | – | – | – | – | – | – | – | – | – | – |
| O=C(NC1CCCc2c1[nH]c1ccc(Cl)cc21)c1ccccn1 (stereo not drawn) [SW308] | – | – | – | less active | 1700 | unable to inhibit EBOV virus replication efficiently | – | – | – | – | – | – | – | – | – | – |
| O=C(NC1CCCc2c1[nH]c1ccc(Cl)cc21)c1ccccn1 (stereo not drawn) [SW835] | – | no effect on cell viability | > 200 | potent activity | ~20 | – | not affected in IFNAR knockout cells | activated the ISRE promoter | 400 | no significant effect on cell viability | 40 | responded | – | – | – | – |
| Cc1c(-c2ccc(-c3ccccc3F)cc2)nc2ccc(F)cc2c1C(=O)O [brequinar, reference compound] | – | – | – | – | – | potently inhibited virus growth | not statistically significant compared to DMSO-treated cells | activated the ISRE promoter | – | – | – | responded | 100 | 100 | 500 | 300 |
